Assay results from patent US10787456B2 (priority 2018, dated 2020).
≈ marks a conversion by molar mass, not a printed value. Like-named read-outs stand apart in the source and are kept apart here.

Key:
[1] = tested on: HUVEC cells; assay: Angiogenesis study, tube formation in HUVEC; type: cell-based; conditions: 100 nM of drug treatment
Method: Angiogenesis studies were performed using HUVEC cells (see FIGS. 6A-6C). Tube formation in HUVEC in presence of 100 nM of drug treatment.

[2] = target: σ (DOR) opioid receptor (Homo sapiens, UniProt P41143); assay: CNS receptor inhibition, Delta opioid receptor; type: binding
Sequence of σ (DOR) opioid receptor (P41143 whole entry): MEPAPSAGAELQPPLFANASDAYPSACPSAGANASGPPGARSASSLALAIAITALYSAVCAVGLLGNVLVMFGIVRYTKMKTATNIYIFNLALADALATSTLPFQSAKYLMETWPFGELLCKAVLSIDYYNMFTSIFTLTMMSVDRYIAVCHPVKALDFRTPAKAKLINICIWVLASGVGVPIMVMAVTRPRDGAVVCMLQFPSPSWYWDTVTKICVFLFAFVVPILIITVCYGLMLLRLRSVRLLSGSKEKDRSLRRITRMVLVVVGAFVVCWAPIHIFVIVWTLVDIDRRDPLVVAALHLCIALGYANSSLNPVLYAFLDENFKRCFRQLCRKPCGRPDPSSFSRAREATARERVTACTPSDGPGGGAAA
Method: (§1) In an illustrative embodiment of the present invention, gliotoxin and Formula 1b, were evaluated for activity of various receptors. Turning to Table 1, inhibitory data is provided for various receptors found in the CNS, including H1 and opioid receptors μ (MOR), […], and κ (KOR). Inhibition data is provided as inhibitor constant, Ki, is the concentration required to produce half-maximum inhibition. This quantitative measure indicates how much of a particular drug or other substance (inhibitor) is needed to inhibit a given biological process (or component of a process, i.e. an enzyme, cell, cell receptor or microorganism) by half. The values are typically expressed as molar (micro- and nano-) concentrations.

[3] = target: μ (MOR) opioid receptor (Homo sapiens, UniProt P35372); assay: CNS receptor inhibition, Mu opioid receptor; type: binding
Sequence of μ (MOR) opioid receptor (P35372 whole entry): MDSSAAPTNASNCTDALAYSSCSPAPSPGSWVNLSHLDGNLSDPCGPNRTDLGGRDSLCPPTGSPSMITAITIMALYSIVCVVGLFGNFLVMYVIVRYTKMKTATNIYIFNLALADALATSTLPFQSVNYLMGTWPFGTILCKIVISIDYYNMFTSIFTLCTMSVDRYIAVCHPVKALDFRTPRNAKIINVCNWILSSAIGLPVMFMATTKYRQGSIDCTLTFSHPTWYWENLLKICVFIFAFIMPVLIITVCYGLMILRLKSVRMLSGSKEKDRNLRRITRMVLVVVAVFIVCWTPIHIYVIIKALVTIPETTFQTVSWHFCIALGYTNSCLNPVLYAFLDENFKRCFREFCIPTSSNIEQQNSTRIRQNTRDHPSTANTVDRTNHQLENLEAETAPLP
Method: as §1

[4] = tested on: bEnd.3 cells; assay: Blood-brain barrier membrane permeability in in-vitro monolayer of bEnd.3 cells; type: in vitro ADME; conditions: in 30 minutes
From the text: FIG. 4 provides permeability data for the blood-brain barrier (BBB) of various compounds, including gliotoxin and Formula 1b. Membrane permeability increases linearly as a function of time.

[5] = tested on: E. Coli; assay: E. coli minimum inhibitory concentration; type: cell-based
From the text: (§2) Further cytotoxicity studies show potential for efficacy as […]. Table 2, below, provides IC50 data relating to both a cancer cell line and E. coli minimum inhibitory concentration (MIC).

[6] = tested on: MDA-MB-231; assay: Cytotoxicity in cancer cell line MDA-MB-231; type: cell-based
From the text: as §2

[7] = target: κ (KOR) opioid receptor (Homo sapiens, UniProt P41145); assay: CNS receptor inhibition, Kappa opioid receptor; type: binding
Sequence of κ (KOR) opioid receptor (P41145 whole entry): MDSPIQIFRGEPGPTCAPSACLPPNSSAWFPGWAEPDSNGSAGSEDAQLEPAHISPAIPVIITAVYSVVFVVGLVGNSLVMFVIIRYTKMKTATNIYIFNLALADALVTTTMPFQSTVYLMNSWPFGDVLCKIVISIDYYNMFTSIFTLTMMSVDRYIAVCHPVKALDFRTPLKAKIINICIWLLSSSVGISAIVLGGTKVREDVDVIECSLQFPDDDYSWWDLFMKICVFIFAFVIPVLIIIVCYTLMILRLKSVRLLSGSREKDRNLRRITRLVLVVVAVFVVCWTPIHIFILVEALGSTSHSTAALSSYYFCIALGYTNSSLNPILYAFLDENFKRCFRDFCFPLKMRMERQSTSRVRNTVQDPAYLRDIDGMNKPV
Method: as §1

[8] = tested on: CNS Receptor; assay: CNS Receptor binding (profile)
Method: as §1

[9] = target: H1 receptor (Homo sapiens, UniProt P35367); assay: CNS receptor inhibition, H1 receptor; type: binding
Sequence of H1 receptor (P35367 whole entry): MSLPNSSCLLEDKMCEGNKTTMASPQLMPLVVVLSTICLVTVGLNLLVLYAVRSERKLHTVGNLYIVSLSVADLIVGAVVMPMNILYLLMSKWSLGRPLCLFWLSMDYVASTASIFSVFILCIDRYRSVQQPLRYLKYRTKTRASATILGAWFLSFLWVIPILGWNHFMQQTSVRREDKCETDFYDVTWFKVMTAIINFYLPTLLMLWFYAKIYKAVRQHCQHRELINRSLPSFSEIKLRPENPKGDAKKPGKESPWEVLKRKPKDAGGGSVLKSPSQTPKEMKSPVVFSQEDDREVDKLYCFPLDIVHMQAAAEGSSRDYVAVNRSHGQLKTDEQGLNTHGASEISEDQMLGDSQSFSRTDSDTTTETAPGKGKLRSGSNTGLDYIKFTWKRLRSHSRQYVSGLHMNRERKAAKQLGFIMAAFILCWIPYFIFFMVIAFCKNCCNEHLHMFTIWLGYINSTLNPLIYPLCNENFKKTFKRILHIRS
Method: as §1

Structure (SMILES)	Inhibition of tube formation [1]	Inhibition (%) [2]	Inhibition (%) [3]	ability to cross the BBB [4]	E. Coli MIC [5]	IC50 [6]	Inhibition (%) [7]	CNS Receptor binding [8]	CNS activity, inhibition of the H1 receptor (FIG. 7) [9]	Inhibition (%) ([9]; H1)	MIC ([5]; Escherichia coli)	IC50 ([6]; Homo sapiens)
CCc1cccc2c1N1C(=O)CC(C)C(=O)C1C2 (stereo not drawn) [Formula 1b, 4-ethyl-8-methyl-7,8,9a,10-tetrahydropyrido[1,2-α]indole-6,9-dione]	no inhibition was observed	97.4%	97.8%	80%	Not Active	> 100000 nM	99.3%	Opioid Antagonist	–	–	–	–
CN1C(=O)[C@]23CC4=CC=C[C@H](O)[C@H]4N2C(=O)[C@@]1(CO)SS3 [Gliotoxin, reference compound]	Inhibition of tube formation was observed	–	–	–	–	–	–	H1 Receptor Antagonist	partial inhibition	61%	32 µg/mL (≈ 98 µM)	1400 nM
